Reference: US11708348B2, “Protease inhibitors for treatment of coronavirus infections” (The Scripps Research Institute, priority 2021, dated 2023)
Like-named read-outs stand apart in the source and are kept apart here.

System: SARS-CoV-2 strain USA-WA1/2020
Experiment: microbe, parasite or virus in culture
Assay type: cell-based
Settings: Severe acute respiratory syndrome coronavirus 2, HeLa-ACE2, 24 h, HeLa-ACE2 cells, SARS-CoV-2 infection, 24 h, read-out: EC50, uM (Hela)

SMILES | EC50 [µM] | EC50 (class symbols) [µM] | also measured
O=C1NCC[C@H]1C[C@H](NC(=O)[C@@H]1CC2(CC2)CN1C(=O)C(O)c1cccc(F)c1)C(=O)COC(F)(F)F (stereo partly drawn) [Compound 405, (6S)-5-(2-(3-fluorophenyl)-2-hydroxyacetyl)-N-((S)-3-oxo-1-((S)-2-oxopyrrolidin-3-yl)-4-(trifluoromethoxy)butan-2-yl)-5-azaspiro[2.4]heptane-6-carboxamide] | 0.05 to 0.2 |  | 
O=C(Nc1ccccc1OC(F)(F)F)C(=O)N1CC2(CC2)C[C@H]1C(=O)N[C@@H](C[C@@H]1CCNC1=O)C(=O)COC(F)(F)F [Compound 610, (S)-N-((S)-3-oxo-1-((S)-2-oxopyrrolidin-3-yl)-4-(trifluoromethoxy)butan-2-yl)-5-(2-oxo-2-((2-(trifluoromethoxy)phenyl)amino)acetyl)-5-azaspiro[2.4]heptane-6-carboxamide] | < 0.05 |  | 
COCC(C)(C)NC(=O)C(=O)N[C@@H](CC(C)C)C(=O)N[C@@H](C[C@@H]1CCNC1=O)C(=O)COC(F)(F)F [Compound 193, N1-(1-methoxy-2-methylpropan-2-yl)-N2-((S)-4-methyl-1-oxo-1-(((S)-3-oxo-1-((S)-2-oxopyrrolidin-3-yl)-4-(trifluoromethoxy)butan-2-yl)amino)pentan-2-yl)oxalamide] |  | < 0.05 | 
CCCCC(=O)N1CC2(CC2)C[C@H]1C(=O)N[C@@H](C[C@@H]1CCNC1=O)C(=O)COC(F)(F)F [Compound 618, (S)-N-((S)-3-oxo-1-((S)-2-oxopyrrolidin-3-yl)-4-(trifluoromethoxy)butan-2-yl)-5-pentanoyl-5-azaspiro[2.4]heptane-6-carboxamide] | 0.05 to 0.2 |  | 
Cn1cncc1C(O)C(=O)N1CC2(CC2)C[C@H]1C(=O)N[C@@H](C[C@@H]1CCNC1=O)C(=O)COC(F)(F)F (stereo partly drawn) [Compound 383, (6S)-5-(2-hydroxy-2-(1-methyl-1H-imidazol-5-yl)acetyl)-N-((S)-3-oxo-1-((S)-2-oxopyrrolidin-3-yl)-4-(trifluoromethoxy)butan-2-yl)-5-azaspiro[2.4]heptane-6-carboxamide] |  |  | EC50 (bound printed in cell): > 1 µM
O=C1NCC[C@H]1C[C@H](NC(=O)[C@@H]1[C@H]2CCC[C@H]2CN1C(=O)[C@H](O)c1ccc(F)cc1)C(=O)COC(F)(F)F [Compound 404, (1S,3aR,6aS)-2-((R)-2-(4-fluorophenyl)-2-hydroxyacetyl)-N-((S)-3-oxo-1-((S)-2-oxopyrrolidin-3-yl)-4-(trifluoromethoxy)butan-2-yl)octahydrocyclo-penta[c]pyrrole-1-carboxamide] | < 0.05 |  | 
CC(C)[C@H](NC(=O)C(=O)Nc1ccccc1F)C(=O)N[C@@H](C[C@@H]1CCNC1=O)C(=O)COc1c(F)c(F)cc(F)c1F [Compound 90, N1-(2-fluorophenyl)-N2-((S)-3-methyl-1-oxo-1-(((S)-3-oxo-1-((S)-2-oxopyrrolidin-3-yl)-4-(2,3,5,6-tetrafluorophenoxy)butan-2-yl)amino)butan-2-yl)oxalamide] |  | 0.05 to 0.2 | 
CC(C)(C)C[C@H](O)C(=O)N1CC2(CC2)C[C@H]1C(=O)N[C@@H](C[C@@H]1CCNC1=O)C(=O)COC(F)(F)F [Compound 349, (S)-5-((S)-2-hydroxy-4,4-dimethylpentanoyl)-N-((S)-3-oxo-1-((S)-2-oxopyrrolidin-3-yl)-4-(trifluoromethoxy)butan-2-yl)-5-azaspiro[2.4]heptane-6-carboxamide] |  | < 0.05 | 
COc1cccc([C@@H](O)C(=O)N2C[C@H]3[C@@H]([C@H]2C(=O)N[C@@H](C[C@@H]2CCNC2=O)C(=O)COC(F)(F)F)C3(C)C)c1F [Compound 741, (1R,2S,5S)-3-((R)-2-(2-fluoro-3-methoxyphenyl)-2-hydroxyacetyl)-6,6-dimethyl-N-((S)-3-oxo-1-((S)-2-oxopyrrolidin-3-yl)-4-(trifluoromethoxy)butan-2-yl)-3-azabicyclo[3.1.0]hexane-2-carboxamide] | < 0.05 |  | 
CC(C)C[C@H](NC(=O)C(=O)NC1CCCCC1(F)F)C(=O)N[C@@H](C[C@@H]1CCNC1=O)C(=O)COC(F)(F)F (stereo partly drawn) [Compound 169, N1-(2,2-difluorocyclohexyl)-N2-((S)-4-methyl-1-oxo-1-(((S)-3-oxo-1-((S)-2-oxopyrrolidin-3-yl)-4-(trifluoromethoxy)butan-2-yl)amino)pentan-2-yl)oxalamide] |  | < 0.05 | 
CC(C)[C@@H](O)C(=O)N1[C@H](C(=O)N[C@@H](C[C@@H]2CCNC2=O)C(=O)COC(F)(F)F)C[C@@]2(C)C[C@@H]12 [Compound 452, (1R,3S,5R)-2-((R)-2-hydroxy-3-methylbutanoyl)-5-methyl-N-((S)-3-oxo-1-((S)-2-oxopyrrolidin-3-yl)-4-(trifluoromethoxy)butan-2-yl)-2-azabicyclo[3.1.0]hexane-3-carboxamide] | 0.05 to 0.2 |  | 
CC(C)CC(C(=O)N[C@@H](C[C@@H]1CCNC1=O)C(=O)COC(F)(F)F)n1cc(C(=O)NC(C)(C)C)nn1 (stereo partly drawn) [Compound 592, N-(tert-butyl)-1-(4-methyl-1-oxo-1-(((S)-3-oxo-1-((S)-2-oxopyrrolidin-3-yl)-4-(trifluoromethoxy)butan-2-yl)amino)pentan-2-yl)-1H-1,2,3-triazole-4-carboxamide] | 0.05 to 0.2 |  | 
O=C(N[C@@H](C[C@@H]1CCNC1=O)C(=O)COc1c(F)c(F)cc(F)c1F)C1CCN(C(=O)C2CCCC2)CC1 [Compound 27, l-(cyclopentane-carbonyl)-N-((S)-3-oxo-1-((S)-2-oxopyrrolidin-3-yl)-4-(2,3,5,6-tetrafluorophenoxy)butan-2-yl)piperidine-4-carboxamide] |  |  | EC50 (cells given as a bound): > 1 µM
CC[C@H](NC(=O)C1CC2(CC2)CO1)C(=O)N[C@@H](C[C@@H]1CCNC1=O)C(=O)COC(F)(F)F (stereo partly drawn) [Compound 294, N-((S)-1-oxo-1-(((S)-3-oxo-1-((S)-2-oxopyrrolidin-3-yl)-4-(trifluoromethoxy)butan-2-yl)amino)butan-2-yl)-5-oxaspiro[2.4]heptane-6-carboxamide] |  | < 0.05 | 
CC(C)C[C@H](NC(=O)C(=O)Nc1ccccc1F)C(=O)N[C@H](Cc1cnc[nH]1)C(=O)COc1c(F)c(F)cc(F)c1F [Compound 136, Nl-((S)-1-(((R)-1-(1H-imidazol-5-yl)-3-oxo-4-(2,3,5,6-tetrafluorophenoxy)butan-2-yl)amino)-4-methyl-1-oxopentan-2-yl)-N2-(2-fluorophenyl)oxalamide] |  | 0.5 to 1 | 
CC(C)C[C@H](NC(=O)Cc1cccc(Cl)c1)C(=O)N[C@@H](C[C@@H]1CCNC1=O)C(=O)COc1c(F)c(F)cc(F)c1F [Compound 144, (S)-2-(2-(3-chlorophenyl)acetamido)-4-methyl-N—((S)-3-oxo-1-((S)-2-oxopyrrolidin-3-yl)-4-(2,3,5,6-tetrafluorophenoxy)butan-2-yl)pentanamide] |  |  | EC50 (cells given as a bound): > 1 µM
O=C1NCC[C@H]1C[C@H](NC(=O)[C@@H]1CC2(CC2)CN1C(=O)C(O)c1ccccc1C(F)(F)F)C(=O)COC(F)(F)F (stereo partly drawn) [Compound 406, (6S)-5-(2-hydroxy-2-(2-(trifluoromethyl)-phenyl)acetyl)-N-((S)-3-oxo-1-((S)-2-oxopyrrolidin-3-yl)-4-(trifluoromethoxy)butan-2-yl)-5-azaspiro[2.4]heptane-6-carboxamide] | 0.05 to 0.2 |  | 
CC(C)C[C@H](NC(=O)c1cc2cccnc2[nH]1)C(=O)N[C@@H](C[C@@H]1CCNC1=O)C(=O)COC(F)(F)F [Compound 194, N-((S)-4-methyl-1-oxo-1-(((S)-3-oxo-1-((S)-2-oxopyrrolidin-3-yl)-4-(trifluoromethoxy)butan-2-yl)amino)pentan-2-yl)-1H-pyrrolo[2,3-b]pyridine-2-carboxamide] |  | < 0.05 | 
CC1(NC(=O)C(=O)N2C[C@@H]3CCC[C@@H]3[C@H]2C(=O)N[C@H](C[C@@H]2CCNC2=O)C(=O)COC(F)(F)F)CC1 [Compound 495, (1S,3aR,6aS)-2-(2-((1-methylcyclopropyl)-amino)-2-oxoacetyl)-N-((R)-3-oxo-1-((S)-2-oxopyrrolidin-3-yl)-4-(trifluoromethoxy)butan-2-yl)octahydrocyclo-penta[c]pyrrole-1-carboxamide] |  |  | EC50 (given as bound): > 1 µM
CC(C)C[C@H](NC(=O)C(=O)NCC1CCCC1)C(=O)N[C@@H](C[C@@H]1CCNC1=O)C(=O)COc1c(F)c(F)cc(F)c1F [Compound 81, N^1-(cyclopentylmethyl)-N^2—((S)-4-methyl-1-oxo-1-(((S)-3-oxo-1-((S)-2-oxopyrrolidin-3-yl)-4-(2,3,5,6-tetrafluorophenoxy)butan-2-yl)amino)pentan-2-yl)oxalamide] |  | 0.05 to 0.2 | 
CC1(C[C@H](NC(=O)C(=O)NC2(C)CC2)C(=O)N[C@@H](C[C@@H]2CCNC2=O)C(=O)COC(F)(F)F)CC1 [Compound 577, Nl-(l-methylcyclo-propyl)-N2-(3-(1-methylcyclopropyl)-1-oxo-1-(((S)-3-oxo-1-((S)-2-oxopyrrolidin-3-yl)-4-(trifluoromethoxy)butan-2-yl)amino)propan-2-yl)oxalamide] | < 0.05 |  | 
O=C1NCC[C@H]1C[C@H](NC(=O)[C@@H]1CC2(CC2)CN1C(=O)C(O)C1CCS(=O)(=O)CC1)C(=O)COC(F)(F)F (stereo partly drawn) [Compound 388, (6S)-5-(2-(l,l-dioxidotetrahydro-2H-thiopyran-4-yl)-2-hydroxyacetyl)-N-((S)-3-oxo-1-((S)-2-oxopyrrolidin-3-yl)-4-(trifluoromethoxy)butan-2-yl)-5-azaspiro[2.4]heptane-6-carboxamide] |  |  | EC50 (bound printed in cell): > 1 µM
CC(C)C[C@H](NC(=O)C(=O)NC1(C)CCNC1)C(=O)N[C@@H](C[C@@H]1CCNC1=O)C(=O)COC(F)(F)F (stereo partly drawn) [Compound 252, N1-((S)-4-methyl-1-oxo-1-(((S)-3-oxo-1-((S)-2-oxopyrrolidin-3-yl)-4-(trifluoromethoxy)butan-2-yl)amino)pentan-2-yl)-N2-(3-methylpyrrolidin-3-yl)oxalamide] |  | 0.2 to 0.5 | 
